Measured values as given in patent US10577383B2, “Macrocyclic inhibitors of myeloperoxidase” (BRISTOL-MYERS SQUIBB COMPANY, priority 2016, dated 2020).

What was measured:
myeloperoxidase [1] = biological target: T1, myeloperoxidase (Homo sapiens (Human), UniProt P05164); assay: MPO Peroxidation Assay (Amplex Red Assay); assay type: biochemical; details: MPO peroxidation activity, 100 mM KPi (pH 7.4), ten minute preincubation; potency ranges defined in nM
Procedure: MPO Peroxidation Assay (Amplex Red Assay)
MPO peroxidation activity was measured in 100 mM KPi (pH 7.4) by utilizing the non-fluorescent reagent Amplex Red (Invitrogen Cat. #A12222) which can be oxidized to the highly fluorescent resorufin. Amplex Red is oxidized by the peroxidase action of MPO to resorufin. Reactions were carried out in 50 μL total volume by adding a 25 μL mixture of 200 pM myeloperoxidase and 40 nM H2O2 (Sigma #349887) to 100 nL inhibitor in 100% DMSO in a 384 well Perkin Elmer Optiplate. Enzyme and compound were preincubated for ten minutes at room temperature.
After the ten minute preincubation, 25 μL of an Amplex Red mixture containing 200 μM Amplex Red and 10 mM H2O2 was added to the plate. Kinetic determinations were carried out immediately on a Perkin Elmer Envision (15 minute kinetic read, Ex: 535 nm, Em: 590 nm).
(§1) IC50 values were calculated by determining the slope of the linear portion of the kinetic trace (180-540 secs), and using that calculated slope to determine % inhibition occurring at each concentration of inhibitor using the following equation:
(§2) [formula] where A=minimal Y value (activity level of inhibited sample), B=maximal Y value (activity level of uninhibited sample), C=Log IC50, D=Hill Slope, x=concentration of inhibitor. MPO Chlorination Assay (APF Assay) MPO chlorination activity was measured in 100 mM KPi (pH 7.4) by utilizing the non-fluorescent reagent Aminophenyl fluorescein (APF, Invitrogen Cat. #A36003). APF is cleaved by (—OCl) to yield the fluorescent compound fluorescein. Reactions were carried out in 50 μL total volume by adding a 25 μL mixture of 200 pM myeloperoxidase and 120 mM NaCl to 100 nL inhibitor in 100% DMSO in a 384 well, non-binding surface clear bottom plate (Corning #3655). Enzyme, inhibitor, and chloride were preincubated for ten minutes at room temperature.

myeloperoxidase [2] = biological target: T1, myeloperoxidase; assay: MPO Chlorination Assay (APF Assay); assay type: biochemical; details: MPO chlorination activity, 100 mM KPi (pH 7.4), 120 mM NaCl, ten minute preincubation; potency ranges defined in nM
Procedure: as §2
After the ten minute preincubation, 25 μL of an APF mixture containing […], 120 mM NaCl and 10 μM H2O2 was added to the plate using the internal dispensing system of a Hammatsu FDSS 6000. Kinetic determinations were carried out immediately on the FDSS 6000 (3 minute kinetic read, 1 read every second, ex: 485 nm, em: 535 nm). IC50 values for inhibitors were calculated by taking the slope of the linear portion of the kinetic measurement (20 seconds to 80-120 secs).
as §1
(§3) [formula] where A=minimal Y value (activity level of inhibited sample), B=maximal Y value (activity level of uninhibited sample), C=Log IC50, D=Hill Slope, x=concentration of inhibitor. EPX Bromination Assay

EPX = EPX (Homo sapiens (Human), UniProt P11678); assay: EPX Bromination Assay; assay type: biochemical; details: EPX bromination activity, 100 mM KPi (pH 7.4), 3-bromo tyrosine formation
Chain of EPX (P11678 251-715): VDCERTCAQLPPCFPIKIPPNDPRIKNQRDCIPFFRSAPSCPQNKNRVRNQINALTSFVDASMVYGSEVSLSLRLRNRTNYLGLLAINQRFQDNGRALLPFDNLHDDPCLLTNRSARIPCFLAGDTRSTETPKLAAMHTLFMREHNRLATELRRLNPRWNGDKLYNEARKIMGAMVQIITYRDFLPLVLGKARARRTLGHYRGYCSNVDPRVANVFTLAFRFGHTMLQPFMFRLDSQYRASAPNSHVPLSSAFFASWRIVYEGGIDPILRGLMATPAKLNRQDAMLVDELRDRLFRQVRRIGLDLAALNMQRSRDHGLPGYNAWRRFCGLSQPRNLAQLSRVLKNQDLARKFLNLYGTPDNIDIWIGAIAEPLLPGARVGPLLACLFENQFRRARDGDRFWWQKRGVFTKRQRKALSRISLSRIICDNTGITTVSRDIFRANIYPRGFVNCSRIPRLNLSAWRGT
Chain of EPX (P11678 140-250): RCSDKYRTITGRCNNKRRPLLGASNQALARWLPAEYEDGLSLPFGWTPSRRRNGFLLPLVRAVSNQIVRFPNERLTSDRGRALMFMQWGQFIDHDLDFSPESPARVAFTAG
Procedure: as §3
EPX bromination activity was measured in 100 mM KPi (pH 7.4) by monitoring the H2O2 catalyzed formation of 3-bromo tyrosine from tyrosine and potassium bromide. A 50 μl mixture of 0.6 μM EPX (Lee Biosolutions Cat. #342-60) was added to 100 nL inhibitor in 100% DMSO in a 384 well REMP plate. Enzyme and compound were preincubated for ten minutes at room temperature.
After the ten minute preincubation of enzyme and inhibitor, 25 μL of a mixture containing 400 μM tyrosine and 1200 μM potassium bromide was added to the plate containing enzyme and inhibitor, followed by the addition of 25 μl of 20 μM H2O2. The reaction was allowed to proceed for 15 minutes, at which time it was quenched with 10 μL of 20% TCA. The final concentrations of all components were 0.3 μM EPX, 100 μM tyrosine, […], 5 μM H2O2, 0.1% DMSO, 2.0% TCA.
IC50 values were determined by determining the peak areas of 3-bromo-tyrosine present at the end of the 15 minute reaction and fitting the data to:
[formula] where A=minimal Y value (activity level of inhibited sample), B=maximal Y value (activity level of uninhibited sample), C=Log IC50, D=Hill Slope, x=concentration of inhibitor.
Reversed-phase analysis was performed on a Waters Acquity Ultra Performance LC system using an Acquity UPLC BEH C18 […], 2.1×50 mm analytical column. The column was maintained at 60° C. Samples were eluted using a gradient of 0%-100% B over 2.5 minutes, followed by equilibration with 100% A for 1 minute where A consisted of 0.1% TFA and B consisted of 90% MeOH/0.1% TFA at a flow rate of 0.6 mL/min. The retention time of 3-bromo tyrosine was 1.22 min

[3] = from OCc1cccc(CNCCC(c2cnn(Cc3cccc(O)c3)c2)c2cc(NC(c3ccccc3)(c3ccccc3)c3ccccc3)nc3c2nnn3C(c2ccccc2)(c2ccccc2)c2ccccc2)c1; ether bond; 17-membered ring; PPh3/DIAD; THF

T1 sequence (P05164 49-745): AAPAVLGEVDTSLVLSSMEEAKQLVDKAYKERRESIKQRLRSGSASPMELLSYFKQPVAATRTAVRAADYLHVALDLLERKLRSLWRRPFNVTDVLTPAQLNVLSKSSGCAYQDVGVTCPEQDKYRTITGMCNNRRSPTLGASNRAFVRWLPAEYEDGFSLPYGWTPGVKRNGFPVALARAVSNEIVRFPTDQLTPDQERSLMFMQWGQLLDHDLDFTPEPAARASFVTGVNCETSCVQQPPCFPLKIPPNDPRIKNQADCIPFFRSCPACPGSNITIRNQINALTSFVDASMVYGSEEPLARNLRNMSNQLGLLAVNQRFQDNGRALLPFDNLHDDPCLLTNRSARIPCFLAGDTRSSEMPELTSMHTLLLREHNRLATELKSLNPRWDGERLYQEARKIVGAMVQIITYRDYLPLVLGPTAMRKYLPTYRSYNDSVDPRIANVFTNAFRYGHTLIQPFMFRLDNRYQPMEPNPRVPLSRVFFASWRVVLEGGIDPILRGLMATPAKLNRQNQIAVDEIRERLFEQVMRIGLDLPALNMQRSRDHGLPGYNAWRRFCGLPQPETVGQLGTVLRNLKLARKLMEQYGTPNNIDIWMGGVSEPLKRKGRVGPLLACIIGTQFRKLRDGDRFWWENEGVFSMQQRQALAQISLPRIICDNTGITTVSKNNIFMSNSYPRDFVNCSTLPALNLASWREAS

| Compound | IC50 (myeloperoxidase [1]) [nM] | IC50 (myeloperoxidase [2]) [nM] | IC50 (EPX) [nM] | ring closure, isolated yield [3] [%] |
| --- | --- | --- | --- | --- |
| Nc1cc(C2CCNC3CCC(CC3)COc3cccc(c3)Cn3cc2cn3)c2nn[nH]c2n1 (stereo not shown) [Example 18, 7-{3-Oxa-10,11,17-triazatetracyclo[16.2.2.1^4,^8.1^1^0,^13]tetracosa-4,6,8(24),11,13(23)-pentaen-14-yl}-3H-[1,2,3]triazolo[4,5-b]pyridin-5-amine] | 101 to 999 | 1 to 100 | 220 | – |
| Nc1cc(C2CCNCC3(CC3)COc3cccc(c3)Cn3cc2cn3)c2nn[nH]c2n1 (single isomer, unassigned) [Example 20, 7-{14′-Oxa-3′,4′,10′-triazaspiro[cyclopropane-1,12′-tricyclo[13.3.1.1^3,^6]icosane]-1′(19′),4′,6′(20′),15′,17′-pentaen-7′-yl}-3H-[1,2,3]triazolo[4,5-b]pyridin-5-amine] | 101 to 999 | 101 to 999 | 63 | – |
| c1ccc(C(Nc2cc(C3CCNCc4cccc(c4)COc4cccc(c4)Cn4cc3cn4)c3nnn(C(c4ccccc4)(c4ccccc4)c4ccccc4)c3n2)(c2ccccc2)c2ccccc2)cc1 (stereo not shown) | – | – | – | 94 |

Second part, led by results:

| IC50 (myeloperoxidase [1]) [nM] | IC50 (myeloperoxidase [2]) [nM] | IC50 (EPX) [nM] | Compound | ring closure, isolated yield [3] [%] |
| --- | --- | --- | --- | --- |
| 1 to 100 | 1 to 100 | 37 | Nc1cc(C2CCNCCc3cccc(c3)Oc3cccc(c3)Cn3cc2cn3)c2nn[nH]c2n1 (single isomer, unassigned) [Example 5, 7-{18-oxa-3,4,10-triazatetracyclo[17.3.1.1^3,^6.1^13,^1^7]pentacosa-1(23),4,6(25),13,15,17(24),19,21-octaen-7-yl}-3H-[1,2,3]triazolo[4,5-b]pyridin-5-amine] | – |
| 101 to 999 | 1 to 100 | 190 | Nc1cc(C2CCNCc3cccc(c3)COc3cccc(c3)Cn3cc2cn3)c2nn[nH]c2n1 (stereo not shown) [Example 2, 7-{18-oxa-3,4,10-triazatetracyclo[17.3.1.1^3,^6.1^12,^1^6]pentacosa-1(23),4,6(25),12,14,16(24),19,21-octaen-7-yl}-3H-[1,2,3]triazolo[4,5-b]pyridin-5-amine] | – |
